Assay results: the NIST ThermoML archive (doi:10.1016/j.jct.2009.11.020)
± gives the expanded uncertainty stated by the source.

Assays:
[1] = 293.15 K; 101.33 kPa; Liquid; Vibrating tube method
[2] = refractive index (Na D-line) (dimensionless); conditions: 293.15 K; 101.33 kPa; Liquid; Standard Abbe refractometry

SMILES	mass density [1]	refractive index [2]
CO [methanol]	791.03 ± 0.23 kg/m3	1.328 ± 0.001
OCC(O)CO [glycerol]	1261.3 ± 0.5 kg/m3	1.474 ± 0.001
O [water]		1.333 ± 0.001
